The source of these data is ChEMBL document CHEMBL3112404, “Click chemistry inspired facile synthesis and bioevaluation of novel triazolyl analogs of Ludartin” (Bioorg Med Chem Lett, 2014).

In assay [1] the test system is PC-3. Briefly: Cytotoxicity against human PC3 cells assessed as growth inhibition at 50 uM by colorimetric sulphorhodamine B assay. The class given is functional. The settings on record: read-out: GI. (In general: The SRB assay estimates cell density from bound dye.)
The subject of assay [2] is MCF7. As to the kind of experiment: Cytotoxicity against human MCF7 cells assessed as growth inhibition at 50 uM by colorimetric sulphorhodamine B assay. The class given is functional. The settings on record: read-out: GI.
Assay [3] has as its system HCT-116. Briefly: Cytotoxicity against human HCT116 cells assessed as growth inhibition at 50 uM by colorimetric sulphorhodamine B assay. The class given is functional. The settings on record: read-out: GI.
The subject of assay [4] is A549. As to the kind of experiment: Cytotoxicity against human A549 cells assessed as growth inhibition at 50 uM by colorimetric sulphorhodamine B assay. The class given is functional. The settings on record: read-out: GI.
Assay [5] deals with T98G. Briefly: Cytotoxicity against human T98G cells assessed as growth inhibition at 50 uM by colorimetric sulphorhodamine B assay. The settings on record: read-out: GI. The class given is functional.
Assay [6] has as its system PC-3. As to the kind of experiment: Cytotoxicity against human PC3 cells assessed as growth inhibition by colorimetric sulphorhodamine B assay. The class given is functional, cell-based.
Assay [7] deals with T98G. As to the kind of experiment: Cytotoxicity against human T98G cells assessed as growth inhibition by colorimetric sulphorhodamine B assay. Format: functional, cell-based.
Assay [8] relates to A549. Briefly: Cytotoxicity against human A549 cells assessed as growth inhibition by colorimetric sulphorhodamine B assay. Format: functional, cell-based.
For assay [9], the system named is HCT-116. Briefly: Cytotoxicity against human HCT116 cells assessed as growth inhibition by colorimetric sulphorhodamine B assay. The class given is functional, cell-based.
Assay [10] concerns MCF7. As to the kind of experiment: Cytotoxicity against human MCF7 cells assessed as growth inhibition by colorimetric sulphorhodamine B assay. Format: functional, cell-based.

SMILES strings stand for the structures.

In the case of `COc1ccc(-n2cc(CNC[C@@H]3C(=O)O[C@H]4[C@H]3CCC(C)=C3C[C@H]5O[C@@]5(C)[C@@H]34)nn2)cc1`, the inhibition of growth at 50 µM in the assay on PC-3 [1] was 0%; with MCF7 [2], 0%; in the assay on HCT-116 [3] it was 0%; in the assay with A549 [4] it was 20%; with T98G [5], 0%.
As to `CC1=C2C[C@H]3O[C@@]3(C)[C@@H]2[C@H]2OC(=O)[C@@H](CNCc3cn(-c4ccccc4[N+](=O)[O-])nn3)[C@@H]2CC1`, the inhibition of growth at 50 µM was 0% in the assay on PC-3 [1]; 0% with MCF7 [2]; 0% in the assay on HCT-116 [3]; 17% with A549 [4]; 0% in the assay with T98G [5].
As for `CC1=C2C[C@H]3O[C@@]3(C)[C@@H]2[C@H]2OC(=O)[C@@H](CNCc3cn(-c4cccc([N+](=O)[O-])c4)nn3)[C@@H]2CC1`, the inhibition of growth at 50 µM in the assay with PC-3 [1], with MCF7 [2], in the assay with HCT-116 [3], in the assay with A549 [4] and with T98G [5] was 0% throughout.
For `CC1=C2C[C@H]3O[C@@]3(C)[C@@H]2[C@H]2OC(=O)[C@@H](CNCc3cn(-c4ccc([N+](=O)[O-])cc4)nn3)[C@@H]2CC1`, the inhibition of growth at 50 µM in the assay with PC-3 [1] amounted to 0%; in the assay with MCF7 [2], 0%; with HCT-116 [3], 0%; in the assay with A549 [4], 26%; with T98G [5], 0%.
Turning to `CC1=C2C[C@H]3O[C@@]3(C)[C@@H]2[C@H]2OC(=O)[C@@H](CNCc3cn(-c4ccccc4C#N)nn3)[C@@H]2CC1`, the inhibition of growth at 50 µM in the assay with PC-3 [1] stood at 22%; in the assay with MCF7 [2], 12%; in the assay with HCT-116 [3], 20%; with A549 [4], 46%; in the assay on T98G [5], 42%.
The matching figures for `CC1=C2C[C@H]3O[C@@]3(C)[C@@H]2[C@H]2OC(=O)[C@@H](CNCc3cn(-c4cccc(C#N)c4)nn3)[C@@H]2CC1`: 0%, 0%, 0%, 10% and 0%.
On the same counts, the results for `CC1=C2C[C@H]3O[C@@]3(C)[C@@H]2[C@H]2OC(=O)[C@@H](CNCc3cn(-c4ccc(C#N)cc4)nn3)[C@@H]2CC1` are 0%, 0%, 0%, 0% and 0%.
The matching figures for `CC1=C2C[C@H]3O[C@@]3(C)[C@@H]2[C@H]2OC(=O)[C@@H](CNCc3cn(-c4ccc(F)cc4F)nn3)[C@@H]2CC1`: 21%, 29%, 0%, 19% and 12%.
With `CC1=C2C[C@H]3O[C@@]3(C)[C@@H]2[C@H]2OC(=O)[C@@H](CNCc3cn(-c4cccc(CO)c4)nn3)[C@@H]2CC1`, the inhibition of growth at 50 µM with PC-3 [1] amounted to 0%; in the assay with MCF7 [2], 13%; in the assay with HCT-116 [3] it was 11%; in the assay with A549 [4] it was 47%; in the assay on T98G [5], 0%.
Take `CC1=C2C[C@H]3O[C@@]3(C)[C@@H]2[C@H]2OC(=O)[C@@H](CNCc3cn(-c4ccc(C)c(C)c4)nn3)[C@@H]2CC1`: the inhibition of growth at 50 µM stood at 46% with PC-3 [1]; 84% in the assay with MCF7 [2]; 49% with HCT-116 [3]; 73% with A549 [4]; 99% with T98G [5]. For the same compound, the concentration for half-maximal inhibition (IC50) (as a rule, the concentration at which inhibition is half-maximal) was 38 µM with PC-3 [6]; 12 µM with T98G [7]; 11 µM in the assay on A549 [8]; 39 µM in the assay with HCT-116 [9]; 8.5 µM in the assay with MCF7 [10].
As for `CC1=C2C[C@H]3O[C@@]3(C)[C@@H]2[C@H]2OC(=O)[C@@H](CNCc3cn(-c4cc(Cl)c(Cl)cc4Cl)nn3)[C@@H]2CC1`, the inhibition of growth at 50 µM with PC-3 [1] was found to be 73%; in the assay on MCF7 [2], 81%; in the assay with HCT-116 [3], 74%; in the assay on A549 [4], 91%; with T98G [5], 77%. The half-inhibitory concentration (IC50) came out at 11 µM in the assay on PC-3 [6]; 17 µM in the assay with T98G [7]; 21 µM in the assay with A549 [8]; 18 µM in the assay on HCT-116 [9]; 12 µM in the assay on MCF7 [10].
As for `CC1=C2C[C@H]3O[C@@]3(C)[C@@H]2[C@H]2OC(=O)[C@@H](CNCc3cn(-c4ccccc4)nn3)[C@@H]2CC1`, the inhibition of growth at 50 µM in the assay on PC-3 [1] was 56%; in the assay with MCF7 [2], 77%; in the assay with HCT-116 [3], 58%; in the assay with A549 [4] it was 77%; with T98G [5], 73%. Besides, the IC50 was found to be 54 µM in the assay on PC-3 [6]; 21 µM in the assay with T98G [7]; 24 µM with A549 [8]; 37 µM in the assay on HCT-116 [9]; 21 µM in the assay on MCF7 [10].
As for `CC1=C2C[C@H]3O[C@@]3(C)[C@@H]2[C@H]2OC(=O)[C@@H](CNCc3cn(-c4cccc5ccccc45)nn3)[C@@H]2CC1`, the inhibition of growth at 50 µM in the assay on PC-3 [1] stood at 8%; in the assay on MCF7 [2], 0%; in the assay with HCT-116 [3], 48%; with A549 [4], 21%; in the assay with T98G [5], 32%.
Turning to `CC1=C2C[C@H]3O[C@@]3(C)[C@@H]2[C@H]2OC(=O)[C@@H](CNCc3cn(-c4ccccc4Cl)nn3)[C@@H]2CC1`, the inhibition of growth at 50 µM in the assay on PC-3 [1] amounted to 28%; in the assay with MCF7 [2] it was 12%; in the assay on HCT-116 [3], 6%; with A549 [4], 32%; in the assay on T98G [5] it was 37%.
As for `CC1=C2C[C@H]3O[C@@]3(C)[C@@H]2[C@H]2OC(=O)[C@@H](CNCc3cn(-c4ccccc4Br)nn3)[C@@H]2CC1`, the inhibition of growth at 50 µM with PC-3 [1] turned out to be 0%; in the assay with MCF7 [2], 22%; in the assay on HCT-116 [3] it was 79%; with A549 [4], 68%; in the assay with T98G [5], 17%. Also, the IC50 with A549 [8] came out at 24 µM; in the assay on HCT-116 [9] it was 26 µM.
For the compound `CC1=C2C[C@H]3O[C@@]3(C)[C@@H]2[C@H]2OC(=O)[C@@H](CNCc3cn(-c4ccc(Br)cc4)nn3)[C@@H]2CC1`, the inhibition of growth at 50 µM in the assay with PC-3 [1] is 28%; in the assay with MCF7 [2] it was 79%; in the assay on HCT-116 [3] it was 72%; in the assay on A549 [4], 74%; with T98G [5], 58%. In addition, the IC50 with T98G [7] amounted to 52 µM; in the assay with A549 [8], 39 µM; with HCT-116 [9] it was 35 µM; in the assay on MCF7 [10] it was 32 µM.
In the case of `COc1ccccc1-n1cc(CNC[C@@H]2C(=O)O[C@H]3[C@H]2CCC(C)=C2C[C@H]4O[C@@]4(C)[C@@H]23)nn1`, the inhibition of growth at 50 µM in the assay on PC-3 [1] was 40%; in the assay with MCF7 [2], 0%; in the assay with HCT-116 [3], 38%; in the assay on A549 [4], 21%; with T98G [5], 34%.
The matching figures for `COc1cccc(-n2cc(CNC[C@@H]3C(=O)O[C@H]4[C@H]3CCC(C)=C3C[C@H]5O[C@@]5(C)[C@@H]34)nn2)c1`: 0%, 6%, 0%, 8% and 0%.
On to `C=C1C(=O)O[C@H]2[C@H]1CCC(C)=C1C[C@H]3O[C@@]3(C)[C@@H]12` [LUDARTIN], for which the inhibition of growth at 50 µM turned out to be 97% in the assay with PC-3 [1]; 100% in the assay with MCF7 [2]; 97% in the assay with HCT-116 [3]; 97% in the assay on A549 [4]; 97% in the assay with T98G [5]. Further, the IC50 with T98G [7] amounted to 6.3 µM; with MCF7 [10], 0.5 µM.
